Blank lines part the entries; values can stand above or below the compound they belong to.
Columns and labels:
Focal adhesion kinase 1 = Focal adhesion kinase 1 (Homo sapiens, UniProt Q05397); assay: Selectivity interaction (KinomeScan (DiscoverX)) EUB0001079a PTK2; conditions: at 1 µM
[1] = biological target: Cyclin-dependent kinase 17 (Homo sapiens) (UniProt Q00537); assay: Selectivity interaction (KinomeScan (DiscoverX)) EUB0000618a CDK17; conditions: at 10 µM
[2] = biological target: T1, Serine/threonine-protein kinase tousled-like 1 (Homo sapiens) (UniProt Q9UKI8); assay: Selectivity interaction (KinomeScan (DiscoverX)) EUB0000618a TLK1; conditions: at 10 µM
T1 sequence (whole entry): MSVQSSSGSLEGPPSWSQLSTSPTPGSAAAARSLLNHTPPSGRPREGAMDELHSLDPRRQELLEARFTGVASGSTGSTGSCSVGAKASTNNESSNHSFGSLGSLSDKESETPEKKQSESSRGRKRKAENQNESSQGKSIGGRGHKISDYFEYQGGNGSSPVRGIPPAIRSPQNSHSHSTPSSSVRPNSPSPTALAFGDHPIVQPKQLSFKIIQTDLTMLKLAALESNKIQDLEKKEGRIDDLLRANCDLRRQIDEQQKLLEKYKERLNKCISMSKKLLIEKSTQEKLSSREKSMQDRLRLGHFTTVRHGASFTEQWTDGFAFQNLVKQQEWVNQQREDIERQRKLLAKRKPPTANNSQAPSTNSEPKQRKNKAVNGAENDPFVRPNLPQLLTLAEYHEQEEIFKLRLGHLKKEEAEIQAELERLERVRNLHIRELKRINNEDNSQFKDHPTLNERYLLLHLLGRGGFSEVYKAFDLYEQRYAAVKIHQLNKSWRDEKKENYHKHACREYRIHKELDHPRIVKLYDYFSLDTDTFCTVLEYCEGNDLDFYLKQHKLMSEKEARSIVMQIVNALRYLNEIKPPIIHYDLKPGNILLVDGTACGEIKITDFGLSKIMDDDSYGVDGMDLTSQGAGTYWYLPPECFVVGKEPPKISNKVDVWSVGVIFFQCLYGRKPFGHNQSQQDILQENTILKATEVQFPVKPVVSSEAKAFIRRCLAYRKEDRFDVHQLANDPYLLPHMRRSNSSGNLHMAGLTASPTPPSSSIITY

[3] = biological target: Serine/threonine-protein kinase pim-1 (Homo sapiens, UniProt P11309); assay: Selectivity interaction (SelectScreen profiling (Invitrogen)) EUB0000607a PIM1; conditions: at 2 µM
[4] = biological target: T2, Calcium/calmodulin-dependent protein kinase type IV (Homo sapiens) (UniProt Q16566); assay: Selectivity interaction (KinomeScan (DiscoverX)) EUB0001619a CAMK4; conditions: at 1 µM
T2 sequence (whole entry): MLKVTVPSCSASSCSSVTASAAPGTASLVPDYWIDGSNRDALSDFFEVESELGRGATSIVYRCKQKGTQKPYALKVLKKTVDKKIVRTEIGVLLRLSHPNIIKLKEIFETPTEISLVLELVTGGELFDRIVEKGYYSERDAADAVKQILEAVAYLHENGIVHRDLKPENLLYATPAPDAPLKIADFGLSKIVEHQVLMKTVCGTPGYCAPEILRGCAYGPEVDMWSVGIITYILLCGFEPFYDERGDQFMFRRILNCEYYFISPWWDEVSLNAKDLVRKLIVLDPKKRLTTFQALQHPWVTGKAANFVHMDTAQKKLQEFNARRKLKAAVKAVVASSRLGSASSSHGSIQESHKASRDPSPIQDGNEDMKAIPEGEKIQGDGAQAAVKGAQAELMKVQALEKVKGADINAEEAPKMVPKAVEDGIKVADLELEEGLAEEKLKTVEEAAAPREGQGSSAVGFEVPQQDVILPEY

[5] = biological target: Mitogen-activated protein kinase 10 (Homo sapiens, UniProt P53779); assay: Selectivity interaction (ActivX KiNativ screen (ex vivo kinase selectivity in human PBMCs)) EUB0001619a MAPK10; assay type: cell-based; conditions: PBMC, at 1 µM
[6] = biological target: T3, Histone-arginine methyltransferase CARM1 (Homo sapiens) (UniProt Q86X55); conditions: KMS-11, at 3 µM
T3 sequence (whole entry): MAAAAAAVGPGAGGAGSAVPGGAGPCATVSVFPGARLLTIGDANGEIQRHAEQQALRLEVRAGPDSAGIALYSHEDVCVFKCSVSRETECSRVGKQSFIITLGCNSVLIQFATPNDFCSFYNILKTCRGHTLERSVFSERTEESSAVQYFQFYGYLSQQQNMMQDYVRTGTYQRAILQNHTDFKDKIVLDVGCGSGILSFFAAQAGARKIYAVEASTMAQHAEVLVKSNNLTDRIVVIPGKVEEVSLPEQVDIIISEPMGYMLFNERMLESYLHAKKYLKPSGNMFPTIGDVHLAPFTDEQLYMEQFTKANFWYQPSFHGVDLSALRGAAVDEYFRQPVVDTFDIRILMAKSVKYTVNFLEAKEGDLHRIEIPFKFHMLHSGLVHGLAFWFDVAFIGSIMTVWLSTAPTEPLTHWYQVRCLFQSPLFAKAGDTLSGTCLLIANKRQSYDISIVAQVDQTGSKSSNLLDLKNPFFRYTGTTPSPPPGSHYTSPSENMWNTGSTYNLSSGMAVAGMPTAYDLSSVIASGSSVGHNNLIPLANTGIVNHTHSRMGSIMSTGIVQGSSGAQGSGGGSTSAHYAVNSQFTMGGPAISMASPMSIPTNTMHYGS

[7] = biological target: Tyrosine-protein kinase Fer (Homo sapiens) (UniProt P16591); assay: Selectivity interaction (ActivX KiNativ screen (kinase selectivity in THP-1 cell lysates)) EUB0000639a FER; assay type: subcellular; conditions: lysate
Sequence of Tyrosine-protein kinase Fer (Homo sapiens) (P16591 whole entry, looked up): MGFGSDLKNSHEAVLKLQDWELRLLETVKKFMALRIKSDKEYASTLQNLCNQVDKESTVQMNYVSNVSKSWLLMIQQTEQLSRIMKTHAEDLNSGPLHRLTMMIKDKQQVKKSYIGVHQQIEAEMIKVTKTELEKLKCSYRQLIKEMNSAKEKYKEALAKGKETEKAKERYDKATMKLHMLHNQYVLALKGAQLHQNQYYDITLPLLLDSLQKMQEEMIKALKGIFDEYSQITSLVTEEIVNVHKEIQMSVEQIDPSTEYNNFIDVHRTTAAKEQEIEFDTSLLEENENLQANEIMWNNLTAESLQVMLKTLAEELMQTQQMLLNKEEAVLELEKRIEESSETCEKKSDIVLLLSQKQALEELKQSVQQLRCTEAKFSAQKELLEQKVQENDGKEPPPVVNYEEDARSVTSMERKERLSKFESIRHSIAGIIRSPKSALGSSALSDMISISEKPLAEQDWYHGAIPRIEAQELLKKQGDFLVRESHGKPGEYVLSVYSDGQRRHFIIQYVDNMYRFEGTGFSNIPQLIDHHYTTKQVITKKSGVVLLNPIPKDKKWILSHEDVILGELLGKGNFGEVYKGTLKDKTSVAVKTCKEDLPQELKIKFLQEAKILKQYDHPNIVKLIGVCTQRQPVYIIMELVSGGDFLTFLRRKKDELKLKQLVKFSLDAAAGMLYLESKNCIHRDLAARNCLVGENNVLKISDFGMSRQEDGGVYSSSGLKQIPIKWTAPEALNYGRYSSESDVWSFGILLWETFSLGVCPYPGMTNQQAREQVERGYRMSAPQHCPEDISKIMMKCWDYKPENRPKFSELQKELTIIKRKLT

[8] = biological target: Cyclin-dependent kinase 8 (Homo sapiens, UniProt P49336); assay: Selectivity interaction (ActivX KiNativ screen (kinase selectivity in THP-1 cell lysates)) EUB0000639a CDK8; assay type: subcellular; conditions: lysate
Sequence of Cyclin-dependent kinase 8 (P49336 whole entry): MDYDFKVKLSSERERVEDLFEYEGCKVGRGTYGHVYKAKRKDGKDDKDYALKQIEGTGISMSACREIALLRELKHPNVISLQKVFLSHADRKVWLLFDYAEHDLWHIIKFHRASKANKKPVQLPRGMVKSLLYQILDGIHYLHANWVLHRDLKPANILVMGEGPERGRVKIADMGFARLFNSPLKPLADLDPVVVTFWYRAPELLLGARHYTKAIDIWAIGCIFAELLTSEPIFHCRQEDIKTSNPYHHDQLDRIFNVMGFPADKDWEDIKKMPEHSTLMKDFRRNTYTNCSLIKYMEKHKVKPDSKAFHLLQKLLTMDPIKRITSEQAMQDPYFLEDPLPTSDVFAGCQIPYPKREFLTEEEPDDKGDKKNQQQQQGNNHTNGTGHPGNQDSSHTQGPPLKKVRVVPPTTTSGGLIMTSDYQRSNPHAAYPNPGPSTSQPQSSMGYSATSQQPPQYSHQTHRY

[9] = biological target: Vascular endothelial growth factor receptor 2 (Homo sapiens, UniProt P35968); assay: Selectivity interaction (KinomeScan (DiscoverX)) EUB0000229b KDR; conditions: at 10 µM
[10] = biological target: Tyrosine-protein kinase BTK (Homo sapiens, UniProt Q06187); assay: Selectivity interaction (ProQinase) EUB0000171b BTK
Sequence of Tyrosine-protein kinase BTK (Q06187 whole entry): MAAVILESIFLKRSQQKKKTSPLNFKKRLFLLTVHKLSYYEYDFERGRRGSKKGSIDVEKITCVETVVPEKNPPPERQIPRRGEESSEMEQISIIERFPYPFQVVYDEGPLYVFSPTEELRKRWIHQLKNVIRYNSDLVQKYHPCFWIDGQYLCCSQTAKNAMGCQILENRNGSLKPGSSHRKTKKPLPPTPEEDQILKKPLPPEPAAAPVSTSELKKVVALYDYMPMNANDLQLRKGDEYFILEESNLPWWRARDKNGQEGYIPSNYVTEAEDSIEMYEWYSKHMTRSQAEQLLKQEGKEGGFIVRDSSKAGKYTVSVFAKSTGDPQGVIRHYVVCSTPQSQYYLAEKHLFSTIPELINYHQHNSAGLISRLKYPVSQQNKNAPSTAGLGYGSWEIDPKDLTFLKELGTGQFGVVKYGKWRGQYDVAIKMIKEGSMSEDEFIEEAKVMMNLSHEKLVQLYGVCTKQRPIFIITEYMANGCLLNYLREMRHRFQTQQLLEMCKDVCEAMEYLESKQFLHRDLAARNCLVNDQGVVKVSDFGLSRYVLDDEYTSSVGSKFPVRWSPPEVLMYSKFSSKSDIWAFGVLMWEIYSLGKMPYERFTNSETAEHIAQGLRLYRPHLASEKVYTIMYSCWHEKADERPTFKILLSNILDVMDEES

[11] = biological target: RAC-alpha serine/threonine-protein kinase (Homo sapiens, UniProt P31749); assay: Selectivity interaction (ProQinase) EUB0000171b AKT1
Sequence of RAC-alpha serine/threonine-protein kinase (P31749 whole entry): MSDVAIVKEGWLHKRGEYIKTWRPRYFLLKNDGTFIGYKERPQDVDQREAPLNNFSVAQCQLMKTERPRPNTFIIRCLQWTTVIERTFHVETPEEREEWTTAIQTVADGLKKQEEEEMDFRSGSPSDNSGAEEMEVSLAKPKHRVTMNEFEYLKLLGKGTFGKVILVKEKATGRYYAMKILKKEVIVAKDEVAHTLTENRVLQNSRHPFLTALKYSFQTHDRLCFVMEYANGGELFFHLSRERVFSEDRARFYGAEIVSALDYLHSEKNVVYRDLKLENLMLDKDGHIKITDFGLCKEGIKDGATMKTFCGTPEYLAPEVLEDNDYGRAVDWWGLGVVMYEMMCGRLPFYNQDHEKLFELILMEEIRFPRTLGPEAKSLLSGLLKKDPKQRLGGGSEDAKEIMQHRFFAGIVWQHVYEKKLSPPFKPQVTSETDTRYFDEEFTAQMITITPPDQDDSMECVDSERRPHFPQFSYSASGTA

[12] = biological target: Macrophage-stimulating protein receptor (Homo sapiens, UniProt Q04912); assay: Selectivity interaction (KinomeScan (DiscoverX)) EUB0001049a MST1R; conditions: at 1 µM
Sequence of Macrophage-stimulating protein receptor (Q04912 25-304 limits assumed): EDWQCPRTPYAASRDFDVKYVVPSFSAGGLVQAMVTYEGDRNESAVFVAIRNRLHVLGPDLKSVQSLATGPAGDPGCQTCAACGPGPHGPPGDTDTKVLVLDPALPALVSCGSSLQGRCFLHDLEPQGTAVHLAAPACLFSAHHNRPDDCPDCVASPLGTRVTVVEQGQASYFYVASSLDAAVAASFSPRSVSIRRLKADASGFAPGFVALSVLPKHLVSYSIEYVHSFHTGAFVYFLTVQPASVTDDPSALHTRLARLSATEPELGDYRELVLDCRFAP
Sequence of Macrophage-stimulating protein receptor (Q04912 310-1400 limits assumed): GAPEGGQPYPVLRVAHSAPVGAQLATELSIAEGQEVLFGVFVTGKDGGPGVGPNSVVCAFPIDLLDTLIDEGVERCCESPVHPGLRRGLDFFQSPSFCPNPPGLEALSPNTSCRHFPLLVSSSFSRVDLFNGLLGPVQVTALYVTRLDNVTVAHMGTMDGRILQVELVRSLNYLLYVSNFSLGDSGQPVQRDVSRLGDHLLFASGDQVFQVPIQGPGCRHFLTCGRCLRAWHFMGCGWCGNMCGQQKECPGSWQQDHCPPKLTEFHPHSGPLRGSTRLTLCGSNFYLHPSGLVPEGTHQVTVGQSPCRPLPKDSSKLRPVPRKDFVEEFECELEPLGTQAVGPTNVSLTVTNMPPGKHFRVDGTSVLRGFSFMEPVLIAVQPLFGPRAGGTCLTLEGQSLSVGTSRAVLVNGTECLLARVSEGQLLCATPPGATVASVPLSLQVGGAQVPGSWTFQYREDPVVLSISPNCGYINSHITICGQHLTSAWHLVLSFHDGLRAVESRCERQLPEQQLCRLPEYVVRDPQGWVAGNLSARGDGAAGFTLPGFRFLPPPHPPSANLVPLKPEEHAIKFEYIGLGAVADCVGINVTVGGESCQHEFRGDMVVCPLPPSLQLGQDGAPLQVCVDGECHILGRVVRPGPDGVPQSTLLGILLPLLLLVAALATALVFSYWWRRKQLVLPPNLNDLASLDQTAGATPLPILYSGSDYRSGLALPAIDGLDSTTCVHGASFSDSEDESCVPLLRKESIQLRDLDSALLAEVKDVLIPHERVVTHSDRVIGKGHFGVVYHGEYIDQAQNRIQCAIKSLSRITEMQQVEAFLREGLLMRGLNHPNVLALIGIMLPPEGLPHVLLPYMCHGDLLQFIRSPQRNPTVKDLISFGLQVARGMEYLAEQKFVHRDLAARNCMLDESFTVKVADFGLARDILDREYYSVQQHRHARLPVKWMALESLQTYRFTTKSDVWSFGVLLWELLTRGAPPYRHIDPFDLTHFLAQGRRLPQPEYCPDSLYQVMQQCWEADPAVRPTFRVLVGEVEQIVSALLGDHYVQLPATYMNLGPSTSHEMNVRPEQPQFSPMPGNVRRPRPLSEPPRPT

[13] = biological target: Tyrosine-protein kinase Fgr (Homo sapiens) (UniProt P09769); assay: Selectivity interaction (KinomeScan (DiscoverX)) EUB0000695a FGR; conditions: at 100 nM
Sequence of Tyrosine-protein kinase Fgr (Homo sapiens) (P09769 2-529 limits assumed): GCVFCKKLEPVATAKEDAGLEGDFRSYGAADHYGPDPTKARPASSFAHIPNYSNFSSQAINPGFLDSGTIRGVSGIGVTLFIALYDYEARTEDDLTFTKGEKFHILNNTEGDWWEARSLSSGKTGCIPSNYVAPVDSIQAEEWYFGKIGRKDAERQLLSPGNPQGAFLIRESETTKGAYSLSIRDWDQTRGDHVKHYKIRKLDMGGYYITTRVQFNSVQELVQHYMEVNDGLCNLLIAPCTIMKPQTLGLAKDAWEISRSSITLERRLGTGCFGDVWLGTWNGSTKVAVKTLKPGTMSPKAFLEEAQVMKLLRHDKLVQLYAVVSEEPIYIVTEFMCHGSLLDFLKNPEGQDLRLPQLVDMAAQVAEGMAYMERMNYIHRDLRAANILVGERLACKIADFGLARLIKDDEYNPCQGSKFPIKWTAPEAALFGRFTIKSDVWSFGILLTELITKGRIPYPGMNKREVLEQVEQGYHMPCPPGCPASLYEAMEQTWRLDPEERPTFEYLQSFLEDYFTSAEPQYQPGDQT

Sequence of Cyclin-dependent kinase 17 (Homo sapiens) (Q00537 whole entry, looked up): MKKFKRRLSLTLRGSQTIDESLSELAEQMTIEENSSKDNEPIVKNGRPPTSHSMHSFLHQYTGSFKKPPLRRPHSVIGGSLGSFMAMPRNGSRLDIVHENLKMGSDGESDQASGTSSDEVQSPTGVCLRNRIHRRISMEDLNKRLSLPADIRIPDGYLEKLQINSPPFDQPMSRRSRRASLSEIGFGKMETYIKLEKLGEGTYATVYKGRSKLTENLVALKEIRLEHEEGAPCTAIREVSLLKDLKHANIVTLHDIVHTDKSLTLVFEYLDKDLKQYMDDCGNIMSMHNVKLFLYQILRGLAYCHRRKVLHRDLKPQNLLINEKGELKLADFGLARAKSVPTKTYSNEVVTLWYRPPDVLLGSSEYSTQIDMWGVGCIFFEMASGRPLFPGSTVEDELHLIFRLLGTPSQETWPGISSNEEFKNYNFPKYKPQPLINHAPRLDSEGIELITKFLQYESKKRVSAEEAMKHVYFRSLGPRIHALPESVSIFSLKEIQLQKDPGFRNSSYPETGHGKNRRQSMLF

Compound: Nc1cnc(N2CCc3cc(S(=O)(=O)Nc4c(F)cc(Cl)cc4F)cc(N4CCCC4=O)c32)nc1 [TP-020n]
- % of control (Focal adhesion kinase 1): 99%

Compound: O[C@H]1CC[C@H](Nc2ncc3nc(Nc4c(F)cc(F)cc4F)n([C@H]4CCOC4)c3n2)CC1
- % of control [1]: 100%
- % of control [2]: 50%

Compound: CNC(=O)Nc1ccc(-c2nc(N3CC4CCC(C3)O4)c3cnn(C4CCC5(CC4)OCCO5)c3n2)cc1
- % of inhibition [3]: 1%

Compound: N#Cc1cccc(-c2c[nH]c3ncnc(N4CCOCC4)c23)c1
- % of control [4]: 100%
- % of inhibition [5]: 5%

- % of growth rate [6]: -17.2%
Compound: CNCCN1CCC(c2cc(CN(C)C(=O)c3cccc(Oc4ccccc4)c3)ccn2)CC1

- % of inhibition ([7]; at 0.01 µM): -9.6%
- % of inhibition ([7]; at 0.04 µM): 0.8%
- % of inhibition ([7]; at 0.2 µM): -7.6%
- % of inhibition ([7]; at 1 µM): 15.7%
- % of inhibition ([7]; at 5 µM): 10.9%
- % of inhibition ([8]; at 0.01 µM): 10.4%
- % of inhibition ([8]; at 0.04 µM): -11.1%
- % of inhibition ([8]; at 0.2 µM): 2.6%
- % of inhibition ([8]; at 1 µM): 7.8%
- % of inhibition ([8]; at 5 µM): 18.7%
Compound: CC[C@@H]1[C@H](F)C(=O)N[C@@H]1COc1nccc2cc(C(N)=O)c(OC)cc12 [ZIMLOVISERTIB]

Compound: COc1cc(N(C)c2ccnc3ccc(C(F)(F)F)cc23)cc(OC)c1OC
- % binding [9]: 85%

- % of control ([10]; at 1 µM): 101%
- % of control ([10]; at 5 µM): 87%
- % of control ([11]; at 1 µM): 84%
- % of control ([11]; at 5 µM): 69%
Compound: C=CC(=O)Nc1cccc(C(=O)Nc2ccc(Nc3cc(-c4[nH]c(SC)nc4C)ccn3)cc2)c1

Compound: COc1cc(Nc2nc(C)cc(-c3cnn4nc(OC)ccc34)n2)cc(C(F)(F)F)c1
- % of control [12]: 94%

Compound: Cc1cc(F)c(C(=O)Nc2cccc(-c3nncn3C(C)C)n2)cc1-n1cnc(C2CC2)c1
- % of control [13]: 96%

Reference: ChEMBL document CHEMBL5465560, “Selectivity Literature for EUbOPEN Chemogenomic Library” (2024)
